The target in the assay is Ribosomal protein S6 kinase alpha-3 (Homo sapiens) (UniProt P51812). As to the kind of experiment: Inhibition of RSK2 (unknown origin) using Ulight-rpS6 as substrate at 10 uM incubated for 1 hr in presence of ATP by TR FRET assay. A general note: TR-FRET usually uses a lanthanide donor and a delayed reading to cut background.

As a reminder, the inhibition is the drop in the measured response relative to a control, in per cent.

Chain of Ribosomal protein S6 kinase alpha-3 (Homo sapiens) (P51812 whole entry): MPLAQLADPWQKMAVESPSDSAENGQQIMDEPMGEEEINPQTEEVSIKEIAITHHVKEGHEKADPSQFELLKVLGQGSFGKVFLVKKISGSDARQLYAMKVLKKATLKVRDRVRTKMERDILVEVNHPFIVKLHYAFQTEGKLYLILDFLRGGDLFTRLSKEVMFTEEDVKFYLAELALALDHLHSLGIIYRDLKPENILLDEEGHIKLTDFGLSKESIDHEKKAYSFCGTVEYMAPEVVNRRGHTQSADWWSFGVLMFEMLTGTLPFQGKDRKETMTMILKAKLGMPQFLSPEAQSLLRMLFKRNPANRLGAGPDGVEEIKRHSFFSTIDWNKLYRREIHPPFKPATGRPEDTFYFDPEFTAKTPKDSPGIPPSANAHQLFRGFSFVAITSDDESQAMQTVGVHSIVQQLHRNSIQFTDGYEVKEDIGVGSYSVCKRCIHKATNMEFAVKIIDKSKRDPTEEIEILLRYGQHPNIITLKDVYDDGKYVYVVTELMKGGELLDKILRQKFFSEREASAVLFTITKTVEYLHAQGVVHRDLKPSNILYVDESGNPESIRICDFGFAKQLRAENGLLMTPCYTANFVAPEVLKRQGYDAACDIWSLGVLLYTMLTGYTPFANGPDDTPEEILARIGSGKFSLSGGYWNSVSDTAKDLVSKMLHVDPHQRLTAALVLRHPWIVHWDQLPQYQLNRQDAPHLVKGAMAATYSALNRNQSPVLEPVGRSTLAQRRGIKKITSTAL

For `Oc1c(F)cc(Nc2ncc3cc[nH]c3n2)cc1F`, the inhibition was found to be 77%.

Take `Oc1c(F)cc(Nc2ncc3nc[nH]c3n2)cc1F`: the inhibition came out at 67%.

Consider `Oc1c(F)cc(Nc2ncc3ncn(-c4ccc(-c5ccccc5)cc4)c3n2)cc1F`, for which the inhibition stood at 49%.

In the case of `Oc1c(F)cc(Nc2ncc3ncn(-c4cccc(OCc5ccccc5)c4)c3n2)cc1F`, the inhibition is 63%.

Regarding `Oc1c(F)cc(Nc2ncc3ncn(-c4ccc(OCc5ccccc5)cc4)c3n2)cc1F`, the inhibition was 42%.

Values taken from ChEMBL document CHEMBL4811279, “N-Substituted pyrrolopyrimidines and purines as p90 ribosomal S6 protein kinase-2 (RSK2) inhibitors” (Bioorg Med Chem, 2021).
